In publication PMC10381533, “Inhibitory Effects of the Fungal Pigment Rubiginosin C on Hyphal and Biofilm Formation in Candida albicans and Candida auris” (Journal of Fungi, 2023):
Several values for one entry are separate records, joined by “and”; a condition that tells them apart may be missing. Equal entries are not always repeated.

Columns and labels:
[1] = system: murine fibroblasts (L929) and human endocervical adenocarcinoma cells (KB-3-1); test: MTT cytotoxicity, range stated over both cell lines; assay type: cell-based; details: range over Rut A and Rut B and over L929 and KB-3-1
Method: (§1) Cytotoxic effects were evaluated on human endocervical adenocarcinoma KB-3-1 [ACC 158] cells and mouse fibroblasts L929 [ACC 2] upon treatment with Rub C, W, and Rut A and B within the concentration range of 37 μg/mL–0.63 ng/mL. The half-maximum inhibitory concentrations (IC50) were determined by standard MTT assays as reported previously (see the Supplementary Material for detailed information). The IC50 values of Rub A and Z have currently been reported. […]
KB-3-1 (ACC 158) cervix carcinoma as well as L929 (ACC 2) mouse fibroblasts were cultured under standard cell culture conditions (37 °C, 5% CO2, 95% humidified atmosphere). […] The cultures were routinely monitored for potential contamination, and only mycoplasma free cultures were used. […]
(§2) Absorbances at 570 nm and 630 nm were measured with a plate reader (Tecan, Männedorf, canton of Zürich, Switzerland). Background absorbance (630 nm) was subtracted from the formazan signal (570 nm). The resulting absorbance is directly proportional to the amount of viable cells. The control was normalized to 100% viable cells, and the viability of cells treated with the test compounds was calculated accordingly. IC50 values were calculated based on a sigmoidal fit model using GraphPad Prism. Means and SD were calculated from at least four independent experiments. […]

[2] = system: Staphylococcus aureus (DSM 1104) biofilm; test: Crystal violet biofilm inhibition assay, S. aureus; assay type: cell-based; details: for inhibitory effects against the biofilm formation of S. aureus: CV assay; for inhibition at 2 µg/mL / inhibition at 3.9 µg/mL / inhibition at 7.8 µg/mL / inhibition at 15.6 µg/mL / inhibition at 31.3 µg/mL / inhibition at 62.5 µg/mL / inhibition at 125 µg/mL / inhibition at 250 µg/mL: Staphylococcus aureus, DSM1104, read-out: inhibition of S. aureus biofilm formation compared to solvent control (= 0%)
Method: Selected azaphilones Rub C and W, Rut A and B were tested against the formation of biofilms in Staphylococcus aureus (DSM 1104). S. aureus DSM 1104 from a −20 °C stock was precultured in 25 mL CASO (casein-peptone soymeal-peptone) medium in a 250 mL flask at 37 °C with 100 rpm for 20 h. The OD600 of the culture solution was adjusted to 0.001 McFarland standard and incubated in 96-well microtiter plates (TPP tissue culture ref.no 92196, Switzerland) for 18 h at 37 °C with 150 μL of serially diluted test […]
(§3) compounds (250–2 μg/mL) in CASO with 4% glucose broth. The inhibition of biofilm formation was evaluated by staining with 150 μL of 0.1% crystal violet (CV; Thermo Fisher) following previously established protocols. In the next step, the supernatant of the 96-well plate was discarded and the wells were rinsed once with PBS buffer. The remaining biofilms were stained at room temperature for 15 min, rinsed three times with PBS buffer, and finally dissolved in 150 μL ethanol (95%). The absorbance of the resulting solution at 530 nm was quantified using a plate reader (Synergy 2, BioTek). Methanol (2.5%) and microporenic acid A (MAA) (250–2 μg/mL) were used as negative and positive controls. Standard deviations (SD) of two repeats with duplicates were 10% or less. […]
μg/mL) were used as negative control and positive control, respectively. The assay was conducted for […]
(§4) Table S2: Selected azaphilones were tested against the formation of biofilm of S. aureus, P. aeruginosa as well as C. auris and dispersal effect on preformed biofilm of S. aureus compared to solvent control (= 0%), respectively. SDs are shown as ±SD.
(§5) Compounds Strains Concentrations [µg/mL] […]

[3] = system: mouse fibroblasts L929 [ACC 2]; test: MTT cytotoxicity assay, L929; assay type: cell-based; details: MTT, tested 37 μg/mL–0.63 ng/mL, read-out: IC50
Method: as §1
(§6) KB-3-1 (ACC 158) cervix carcinoma as well as L929 (ACC 2) mouse fibroblasts were cultured under standard cell culture conditions (37 °C, 5% CO2, 95% humidified atmosphere). The cells were maintained in high glucose DMEM containing 10% fetal bovine serum and 100 U/mL penicillin and streptomycin (Gibco, Thermo Fisher Scientific, Waltham, USA). Cell lines were serially passaged after trypsinization, using 0.05% trypsin / 0.02% EDTA solution. The cultures were routinely monitored for potential contamination, and only mycoplasma free cultures were used. The test compounds were investigated for their anti-proliferative effect on cell lines, using the 3-(4,5-dimethylthiazol-2-yl)-2,5-diphenyltetrazolium bromide (MTT) based cell viability assay. Cells were seeded in 96 well microtiter plates (Sarstedt, Germany) with a cell density of 0.05 * 10^6 cells per mL and 100 μL per well and were incubated for 24 h. […]
as §2

[4] = system: Pseudomonas aeruginosa (PA 14) DSM 19882 biofilm; test: Crystal violet biofilm inhibition assay, P. aeruginosa; assay type: cell-based; details: Pseudomonas aeruginosa, DSM19882, assay conducted once, read-out: inhibition of P. aeruginosa biofilm formation compared to solvent control (= 0%)
Method: Selected azaphilones Rub C and W, Rut A and B were tested against the formation of biofilms in Pseudomonas aeruginosa (PA 14) DSM 19882. Bacterial strain was precultured in 25 mL LB medium (Luria - Bertani Broth) with a 250 mL flask at 37 °C with shaking 100 rpm overnight. The turbidity of the baterial solution was measured and diluted to match the turbidity of a 0.1 McFarland standard in M63 medium, which is supplemented with magnesium sulfate, glucose and casamino acids as previously described. The compounds were added into 150 μL bacterial solution at the concentration (250–2 μg/mL) then the solution was added in U-bottom 96 well plate (Falcon ref.no 351177, Thermo Fisher Scientific). The plates were incubated at 37 °C at 150 rpm for 24 h and biofilms were established at the air liquid interface. The plates were rinsed once by using PBS buffer, the biofilms were stained by 150 μL 0.1% CV at room temperature for 15 min and then rinsed two times by using PBS buffer. The absorbance was quantified with the plate reader (Synergy 2, BioTek) at 550 nm using ethanol (95%). Methanol (2.5 %) and myxovalargin A (250 –2 μg/mL) were used as negative control and positive control, respectively. The assay was conducted for […]
as §4, §5

[5] = system: human endocervical adenocarcinoma KB-3-1 [ACC 158] cells; test: MTT cytotoxicity assay, KB-3-1; assay type: cell-based; details: KB-3-1, MTT, tested 37 μg/mL–0.63 ng/mL, read-out: IC50
Method: as §1, §6, §2

[6] = system: preformed S. aureus biofilm; test: Dispersal effect on preformed S. aureus biofilm; assay type: cell-based, Staphylococcus aureus; details: 250 µg/mL
Method: as §3, §4, §5

| SMILES | IC50 [1] | inhibitory effects against the biofilm formation of S. aureus [2] | inhibition at 2 µg/mL [2] | inhibition at 3.9 µg/mL [2] | inhibition at 7.8 µg/mL [2] | inhibition at 15.6 µg/mL [2] | inhibition at 31.3 µg/mL [2] | inhibition at 62.5 µg/mL [2] | inhibition at 125 µg/mL [2] | inhibition at 250 µg/mL [2] | IC50 [3] | inhibition at 2 µg/mL [4] | inhibition at 3.9 µg/mL [4] | inhibition at 7.8 µg/mL [4] | inhibition at 15.6 µg/mL [4] | inhibition at 31.3 µg/mL [4] | inhibition at 62.5 µg/mL [4] | inhibition at 125 µg/mL [4] | inhibition at 250 µg/mL [4] | IC50 [5] | also measured |
| --- | --- | --- | --- | --- | --- | --- | --- | --- | --- | --- | --- | --- | --- | --- | --- | --- | --- | --- | --- | --- | --- |
| CC(=O)OC/C=C/C1=CC2=C(CO1)C(=O)[C@@](C)(OC(=O)c1c(C)cc(O)cc1O)C(=O)/C2=C\C=C\C1=CC2=C(CO1)C(=O)[C@@](C)(O)[C@@H](OC(=O)c1c(C)cc(O)cc1O)C2 [Rut A, rutilin A] | 1.1 µM to 2.2 µM and 0.9 µg/mL to 1.8 µg/mL | moderate inhibitory effects | < 20% | < 20% | < 20% | 21 ± 2% | 51 ± 10% | 51 ± 10% | 55 ± 9% | 60 ± 6% | 1200 nM | < 20% | < 20% | < 20% | < 20% | < 20% | < 20% | < 20% | < 20% | 1100 nM |  |
| CC(=O)OC/C=C/C1=CC2=C(CO1)C(=O)[C@@](C)(OC(=O)c1c(C)cc(O)cc1O)C(=O)/C2=C\C=C\C1=CC2=C(CO1)C(=O)[C@@](C)(OC(=O)c1c(C)cc(O)cc1O)[C@@H](O)C2 [Rut B, rutilin B] | 1.1 µM to 2.2 µM and 0.9 µg/mL to 1.8 µg/mL | moderate inhibitory effects | 86 ± 2% | 88 ± 1% | 88 ± 1% | 87 ± 2% | 86 ± 2% | 86 ± 2% | 85 ± 2% | 84 ± 2% | 2200 nM | < 20% | < 20% | < 20% | < 20% | < 20% | < 20% | < 20% | < 20% | 1500 nM | dispersal effect on preformed biofilm of S. aureus compared to solvent control (= 0%) [6]: 51 ±8% |
